Numbered stars: 1 amine (or outer) side, 2 acyl side, 3 side chain; on linkers, the order of the positions; unused ones are H or OH. Square brackets hold non-standard residues; d marks the D form. Peptide text beside a SMILES is read from it. * marks the point of attachment. ξ: configuration not given here. Phe(4-F)ψ(2,4-Thz) = O=C(c1csc([C@H](Cc2ccc(F)cc2)N[*:1])n1)[*:2]; Phe(4-guanidino) = N=C(N)Nc1ccc(C[C@H](N)C(=O)O)cc1; X1 = COc1ccc(C[C@H](N[*:1])c2nc(C(=O)[*:2])cs2)cc1; Phe(4-F) = N[C@@H](Cc1ccc(F)cc1)C(=O)O; hArg = N=C(N)NCCCC[C@H](N)C(=O)O; Cha = N[C@@H](CC1CCCCC1)C(=O)O; Nphe = O=C(O)CNCc1ccccc1; X2 = O=C(/C=C/c1ccccc1)*; ξV = CC(C)C(N)C(=O)O; Sar = CNCC(=O)O
Legend:
[1] = molecular target: T1, Proteinase-activated receptor 1 (Homo sapiens, UniProt P25116); experiment: Inhibition of [3H]S-(p-F-Phe)-Har-L-Har-KY-NH2 binding to a thrombin receptor (PAR-1) membrane preparation.
T1 sequence (P25116 whole entry): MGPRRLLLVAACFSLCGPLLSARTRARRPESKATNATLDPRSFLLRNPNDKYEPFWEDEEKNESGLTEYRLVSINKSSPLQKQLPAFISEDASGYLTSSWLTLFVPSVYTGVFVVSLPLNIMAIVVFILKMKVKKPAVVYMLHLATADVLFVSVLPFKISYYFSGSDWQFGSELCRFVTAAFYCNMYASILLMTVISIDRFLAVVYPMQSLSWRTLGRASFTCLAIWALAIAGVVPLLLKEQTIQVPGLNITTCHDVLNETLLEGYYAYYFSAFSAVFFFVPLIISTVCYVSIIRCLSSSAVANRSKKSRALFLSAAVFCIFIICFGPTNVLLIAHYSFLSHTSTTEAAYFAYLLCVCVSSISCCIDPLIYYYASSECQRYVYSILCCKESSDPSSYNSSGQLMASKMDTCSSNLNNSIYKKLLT

Homo sapiens [2] = species on record: Homo sapiens; experiment: Inhibition of TRAP-6 (SFLLRN-NH2)-induced human gel filtered platelet aggregation (GFP).; type: functional
Homo sapiens [3] = species on record: Homo sapiens; experiment: Inhibition of alpha-thrombin-induced human gel filtered platelet aggregation (GFP).; type: functional

IC50 [1]	IC50 (Homo sapiens [2])	IC50 (Homo sapiens [3])	Structure (SMILES)
5.7 µM	14 µM	41 µM	CNCC(=O)N[C@@H](Cc1ccc(F)cc1)c1nc(C(=O)N[C@@H](CC2CCCCC2)C(=O)N[C@@H](CCCN=C(N)N)C(=O)N[C@@H](Cc2ccccc2)C(N)=O)cs1
8.2 µM			COc1ccc(C[C@H](NC(=O)C(N)C(C)C)c2nc(C(=O)N[C@@H](CC3CCCCC3)C(=O)N[C@@H](CCCNC(=N)N)C(=O)N[C@@H](Cc3ccccc3)C(N)=O)cs2)cc1 (stereo partly drawn) (H-[ξV][X1][Cha]RF-NH2)
6.2 µM	13 µM	19 µM	NCC(=O)N[C@@H](Cc1ccc(F)cc1)c1nc(C(=O)N[C@@H](CC2CCCCC2)C(=O)N[C@@H](CCCN=C(N)N)C(N)=O)co1
3.9 µM	4 µM	32 µM	CC[C@H](C)[C@H](N)C(=O)N[C@@H](Cc1ccc(F)cc1)c1nc(C(=O)N[C@@H](CC2CCCCC2)C(=O)N[C@@H](CCCN=C(N)N)C(=O)N[C@@H](Cc2ccccc2)C(N)=O)cs1 (H-I[Phe(4-F)ψ(2,4-Thz)][Cha]RF-NH2)
30 µM	19 µM	18 µM	CC(=O)N[C@@H](Cc1ccc(F)cc1)c1nc(C(=O)N[C@@H](CC2CCCCC2)C(=O)N[C@@H](CCCNC(=N)N)C(=O)NCc2ccccc2)c(C)o1
> 100 µM	80 µM	> 100 µM	CC[C@H](C)[C@H](N)C(=O)N[C@@H](Cc1ccc(F)cc1)c1nc(C(=O)N(CC(=O)N[C@@H](CCCN=C(N)N)C(=O)N[C@@H](Cc2ccccc2)C(N)=O)Cc2ccccc2)cs1 (H-I[Phe(4-F)ψ(2,4-Thz)][Nphe]RF-NH2)
1.6 µM	6.6 µM	25 µM	CNCC(=O)N[C@@H](Cc1ccc(F)cc1)c1nc(C(=O)N[C@@H](CC2CCCCC2)C(=O)N[C@@H](CCCN=C(N)N)C(=O)NCc2ccccc2)co1
> 100 µM	> 100 µM	> 100 µM	CNCC(=O)N[C@@H](Cc1ccc(F)cc1)c1nc(C(=O)N2CCCC(C(=O)N[C@@H](CCCNC(=N)N)C(=O)N[C@@H](Cc3ccccc3)C(N)=O)C2)cs1 (stereo partly drawn)
60 µM	36 µM	45 µM	CNCC(=O)N[C@@H](Cc1ccccc1)c1nc(C(=O)N[C@@H](CC2CCCCC2)C(=O)N[C@@H](CCCNC(=N)N)C(=O)NCc2ccccc2)c(C)o1
	> 100 µM	> 100 µM	CNCC(=O)N[C@@H](Cc1ccc(F)cc1)c1nc(C(=O)N[C@@H](CCCN=C(N)N)C(=O)N[C@@H](CCCN=C(N)N)C(=O)N[C@@H](Cc2ccccc2)C(N)=O)cs1 (H-[Sar][Phe(4-F)ψ(2,4-Thz)]RRF-NH2)
4.1 µM	5.5 µM	45 µM	CNCC(=O)N[C@@H](Cc1ccc(F)cc1)c1nc(C(=O)N[C@@H](CC2CCCCC2)C(=O)N[C@@H](CCCN=C(N)N)C(=O)N[C@@H](Cc2ccc(O)cc2)C(N)=O)cs1 (H-[Sar][Phe(4-F)ψ(2,4-Thz)][Cha]RY-NH2)
5.6 µM	10 µM	27 µM	CNCC(=O)N[C@@H](Cc1ccc(F)cc1)c1nc(C(=O)N[C@@H](CC2CCCCC2)C(=O)N[C@@H](CCCN=C(N)N)C(=O)NCCc2ccccc2)cs1
> 100 µM	> 100 µM	> 100 µM	CNCC(=O)N[C@@H](Cc1ccc(F)cc1)c1nc(C(=O)N[C@@H](CCCCN)C(=O)N[C@@H](CCCNC(=N)N)C(=O)NCCc2ccccc2)cs1
> 100 µM			CNCC(=O)N[C@@H](Cc1ccc(F)cc1)c1nc(C(=O)N[C@@H](CCCNC(=N)N)C(=O)N[C@@H](CCCNC(=N)N)C(=O)N[C@@H](Cc2ccccc2)C(N)=O)cs1 (H-[Sar][Phe(4-F)ψ(2,4-Thz)]RRF-NH2)
	6.8 µM	46 µM	CNCC(=O)N[C@@H](Cc1ccc(F)cc1)c1nc(C(=O)N[C@@H](CC2CCCCC2)C(=O)N[C@@H](CCCN=C(N)N)C(=O)N[C@@H](CC2CCCCC2)C(N)=O)cs1 (H-[Sar][Phe(4-F)ψ(2,4-Thz)][Cha]R[Cha]-NH2)
73 µM	0.3 µM		CC(C)C[C@H](NC(=O)[C@H](CC(C)C)NC(=O)[C@H](Cc1ccccc1)NC(=O)[C@@H](N)CO)C(=O)N[C@@H](CCCN=C(N)N)C(=O)N[C@@H](CC(N)=O)C(N)=O

IC50 [1]	IC50 (Homo sapiens [2])	IC50 (Homo sapiens [3])	Structure (SMILES)
0.0075 µM	0.021 µM		CC(C)C[C@H](NC(=O)[C@H](Cc1ccc(NC(=N)N)cc1)NC(=O)[C@H](Cc1ccc(F)cc1)NC(=O)/C=C/c1ccccc1)C(=O)N[C@@H](CCCN=C(N)N)C(=O)N[C@@H](CCCN=C(N)N)C(N)=O (X2-[Phe(4-F)][Phe(4-guanidino)]LRR-NH2)
5 µM	18 µM	23 µM	CNCC(=O)N[C@@H](Cc1ccc(F)cc1)c1nc(C(=O)N[C@@H](CC2CCCCC2)C(=O)N[C@@H](CCCNC(=N)N)C(=O)NCc2ccccc2)c(C)o1
94 µM	42 µM	96 µM	CNCC(=O)N[C@@H](Cc1ccc(F)cc1)c1nc(C(=O)N[C@H](CC2CCCCC2)C(=O)N[C@@H](CCCNC(=N)N)C(=O)N[C@@H](Cc2ccccc2)C(N)=O)cs1
53 µM	25 µM	24 µM	Cc1oc([C@H](Cc2ccc(F)cc2)NC(=O)C(N)CN)nc1C(=O)N[C@@H](CC1CCCCC1)C(=O)N[C@@H](CCCN=C(N)N)C(=O)NCc1ccccc1 (stereo partly drawn)
2.7 µM			CC(C)C(N)C(=O)N[C@@H](Cc1ccc(F)cc1)c1nc(C(=O)N[C@@H](CC2CCCCC2)C(=O)N[C@@H](CCCNC(=N)N)C(=O)N[C@@H](Cc2ccccc2)C(N)=O)cs1 (stereo partly drawn) (H-[ξV][Phe(4-F)ψ(2,4-Thz)][Cha]RF-NH2)
5.4 µM	10 µM	17 µM	NCC(=O)N[C@@H](Cc1ccc(F)cc1)c1nc(C(=O)N[C@@H](CC2CCCCC2)C(=O)N[C@@H](CCCN=C(N)N)C(=O)NCc2ccccc2)co1
10 µM	11 µM	27 µM	CNCC(=O)N[C@@H](Cc1ccc(F)cc1)c1nc(C(=O)N[C@@H](CC2CCCCC2)C(=O)N[C@@H](CCCNC(=N)N)C(=O)NCc2ccccc2)cs1
2.7 µM			CNCC(=O)N[C@@H](Cc1ccc(F)cc1)c1nc(C(=O)N[C@@H](CC2CCCCC2)C(=O)N[C@@H](CCCNC(=N)N)C(=O)N[C@@H](CC2CCCCC2)C(N)=O)cs1 (H-[Sar][Phe(4-F)ψ(2,4-Thz)][Cha]R[Cha]-NH2)
24 µM	16 µM	40 µM	CNCC(=O)N[C@@H](Cc1ccc(F)cc1)c1nc(C(=O)N[C@@H](CC2CCCCC2)C(=O)N[C@@H](CCCNC(=N)N)C(=O)NCC(C)c2ccccc2)cs1 (stereo partly drawn)
8 µM	16 µM	28 µM	NC(=O)[C@H](Cc1ccccc1)NC(=O)[C@H](CCCN=C(N)N)NC(=O)[C@H](CC1CCCCC1)NC(=O)c1csc([C@@H](N)Cc2ccc(F)cc2)n1
	4.6 µM	22 µM	CC(C)C(N)C(=O)N[C@@H](Cc1ccc(F)cc1)c1nc(C(=O)N[C@@H](CC2CCCCC2)C(=O)N[C@@H](CCCN=C(N)N)C(=O)N[C@@H](Cc2ccccc2)C(N)=O)cs1 (stereo partly drawn) (H-[ξV][Phe(4-F)ψ(2,4-Thz)][Cha]RF-NH2)
	7.7 µM	59 µM	CNCC(=O)N[C@@H](Cc1ccc(F)cc1)c1nc(C(=O)N[C@@H](CC2CCCCC2)C(=O)N[C@@H](CCCCN=C(N)N)C(=O)N[C@@H](Cc2ccccc2)C(N)=O)cs1 (H-[Sar][Phe(4-F)ψ(2,4-Thz)][Cha][hArg]F-NH2)
24 µM	13 µM	46 µM	CNCC(=O)N[C@@H](Cc1ccc(F)cc1)c1nc(C(=O)N[C@@H](Cc2ccccc2)C(=O)N[C@@H](CCCN=C(N)N)C(=O)NCc2ccccc2)cs1
	9.5 µM	49 µM	COc1ccc(C[C@H](NC(=O)C(N)C(C)C)c2nc(C(=O)N[C@@H](CC3CCCCC3)C(=O)N[C@@H](CCCN=C(N)N)C(=O)N[C@@H](Cc3ccccc3)C(N)=O)cs2)cc1 (stereo partly drawn) (H-[ξV][X1][Cha]RF-NH2)
6.7 µM	36 µM	> 100 µM	NCCC(=O)N[C@@H](Cc1ccc(F)cc1)c1nc(C(=O)N[C@@H](CC2CCCCC2)C(=O)N[C@@H](CCCN=C(N)N)C(=O)NCc2ccccc2)co1

Source: ChEMBL document CHEMBL1130860, “Thrombin receptor (PAR-1) antagonists. Heterocycle-based peptidomimetics of the SFLLR agonist motif” (Bioorg Med Chem Lett, 1998)
